Structures are written as SMILES.

The target of the assay is Alpha-synuclein (Homo sapiens, UniProt P37840). In words: Inhibition of alpha-synuclein (unknown origin) aggregation incubated for 3 days by thioflavin T based fluorescence assay.

Usually IC50 stands for the concentration that inhibits the measured activity by half. A higher IC50 goes with lower potency. As for `O=C(O)c1cc(O)c(O)c(O)c1` [GALLIC ACID], the concentration for half-maximal inhibition (IC50) came out at 4.43 µM.

Source of the values: ChEMBL document CHEMBL4622956, “Amide derivatives of Gallic acid: Design, synthesis and evaluation of inhibitory activities against in vitro α-synuclein aggregation” (Bioorg Med Chem, 2020).
